Assay results published in patent publication US20200068890A1 (Person to Whom the Inventor is Obligated to Assign, priority 2017, published 2020).
Several values for one entry are separate records, joined by “and”; a condition that tells them apart may be missing. Equal values may be shown once. Read-outs that look alike come from different tables or passages of the source.

What was measured:
[1] = system: human liver cells (HepG2); assay: MTT viability assay; conditions: for % viability 1 / % viability 2 / % viability 3: 48 hrs
Protocol: (§1) Cells were harvested and resuspended in growth media (5-10 ml) to count. Cells were diluted to the appropriate concentration (5×10^3), and seeded into 96-well plates as follows: (a) 50 μl of cells per well, (b) 100 μl of growth media in the Blank wells, (c) 100 μl PBS in outer wells (to prevent dehydration of media from the cells). Cells were incubated overnight at 37° C. (5% CO2).
(§2) Compounds were prepared as serial dilutions in growth media. Each treatment concentration was performed in triplicate. 50 μl/well of prepared compound was added to cells.
(§3) A no treatment triplicate (100% viability) was also included by adding 50 μl of growth media to cells. Plates were returned to the incubator for 48 hrs.
(§4) MTT powder in 1×PBS was prepared at 5 mg/ml and filter sterilised. MTT was added to serum-free media to a final concentration of 1 mg/ml. 100 μl of the MTT solution (1 mg/ml) was added to each well, including 0 μM and blank wells. Plates were incubated at 37° C. in incubator for 3 hrs. Following incubation, the media was removed from wells without disrupting the purple crystals formed. 100 μl of DMSO was added to each well using a multichannel pipette. The plates were shaken on the plate shaker until all the crystals have dissolved. The absorbance was measured at 570 nm using a plate reader. The data was analysed using Microsoft Excel. For each treatment concentration the average was calculated, the blank was subtracted and the cell viability was determined as a percentage of the no treatment control (DMSO vehicle control).

[2] = system: human kidney cells (HEK293); assay: MTT viability assay; conditions: for % Viability Remaining 1 / % Viability Remaining 2 / % Viability Remaining 3: 48 hrs
Protocol: as §1, §2, §3, §4

EMRSA-15 = assay: Broth microdilution MIC; type: cell-based
Protocol: Assays were carried out by a broth microdilution method using a 96-well plate according to guidelines defined by the European Committee on Antimicrobial Susceptibility Testing as described here. Overnight cultures of strains were grown in tryptic soy broth (TSB) at 37° C. The overnight cultures were diluted to a concentration of 1×10^6 bacteria/ml (OD600=0.01) in TSB media. To each well on 96 well plates, 100 μl of bacterially infected media at a concentration of 1×10^6/ml and compounds at various concentrations were added. An uninfected control (i.e. no bacteria) was also included. The plates were incubated at 37° C. wrapped in parafilm for 20 hrs. The growth was assessed by measuring the absorbance at 600 nm. The minimum inhibitory concentration (MIC) was determined to be the lowest concentration of compound that inhibits visible bacterial growth.

A. thaliana seedlings = assay: In planta seedling development and root length on GM/MS media; type: in vivo; conditions: for Normalised root / Root Length: individual plants 1-20
Protocol: Gamborg modified/Murashige Skoog (GM/MS) media and soil were prepared as according to Table 6.
A. thaliana seeds were sterilised including a 15 min wash step in 10% (v/v) commercial bleach without the addition of detergents. All plants were grown in a controlled environment room (CER) at 22±5° C. with 16 hrs: 8 hrs light: dark, 50-60% humidity under cool-white fluorescent light. Plants grown on soil were regularly watered and relocated within the CER.
Basta was employed as a positive control at a final recommended concentration of 10 μg/mL (50 μM). Negative controls included 0% (v/v) DMSO (H2O) and 1% (v/v) DMSO (vehicle). Media was poured into 100 mL plates and allowed to set before adding 20 sterilised seeds per plate. Seeds were then stratified at 4° C. for 72 hrs in a dark room prior to relocation into a CER.
The resulting growth plates were monitored daily and allowed to grow in an upright position for up to 14 days post stratification to determine the average root length using ImageJ analysis. Experiments were carried out in triplicates. Results were statistically validated using t-tests employing GraphPad Prism.

A. thaliana DHDPS = system: T1, A. thaliana DHDPS; assay: DHDPS-DHDPR coupled assay, dose response inhibitor assay; type: biochemical, Arabidopsis thaliana
T1 construct: AtDHDPS|10|0.00008; no borders, domain or tags given

## COc1ccccc1/C=C1\SC(=O)N(CC(=O)O)C1=O [Compound 3, (Z)-2-(5-(2-Methoxybenzylidene)-2,4-dioxothiazolidin-3-yl)acetic Acid]
[1]; HepG2, 12.5 μM
  % viability 1: 110%
  % viability 2: 104%
  % viability 3: 92.2%
[1]; HepG2, 25 μM
  % viability 1: 80.2%
  % viability 2: 86.4%
  % viability 3: 91.4%
[1]; HepG2, 50 μM
  % viability 1: 106.4%
  % viability 2: 89.9%
  % viability 3: 98.7%
[1]; HepG2, 100 μM
  % viability 1: 80.2%
  % viability 2: 89.3%
  % viability 3: 82.2%
[1]; HepG2, 200 μM
  % viability 1: 84.2%
  % viability 2: 96.5%
  % viability 3: 92.9%
[1]; HepG2, 400 μM
  % viability 1: 76.2%
  % viability 2: 87.9%
  % viability 3: 87.5%
[1]; HepG2, MTT, up to 400 μM (Defensin 100 μM)
  toxicity to HepG2 cells (in words): effectively nontoxic
[2]; HEK293, 12.5 μM
  % Viability Remaining 1: 73.4%
  % Viability Remaining 2: 104%
  % Viability Remaining 3: 99.0%
[2]; HEK293, 25 μM
  % Viability Remaining 1: 100%
  % Viability Remaining 2: 86.3%
  % Viability Remaining 3: 83.8%
[2]; HEK293, 50 μM
  % Viability Remaining 1: 78.5%
  % Viability Remaining 2: 80.4%
  % Viability Remaining 3: 92.2%
[2]; HEK293, 100 μM
  % Viability Remaining 1: 84.2%
  % Viability Remaining 2: 93.0%
  % Viability Remaining 3: 91.6%
[2]; HEK293, 200 μM
  % Viability Remaining 1: 82.5%
  % Viability Remaining 2: 89.8%
  % Viability Remaining 3: 94.3%
[2]; HEK293, 400 μM
  % Viability Remaining 1: 72.3%
  % Viability Remaining 2: 106%
  % Viability Remaining 3: 85.6%
[2]; HEK293, MTT, up to 400 μM (Defensin 100 μM)
  toxicity to HEK293 cells (in words): effectively nontoxic
EMRSA-15; EMRSA-15, replicate 1, read-out: MIC #1
  MIC: > 64 µg/mL
EMRSA-15; EMRSA-15, replicate 2, read-out: MIC #2
  MIC: > 64 µg/mL
EMRSA-15; EMRSA-15, replicate 3, read-out: MIC #3
  MIC: > 64 µg/mL
A. thaliana seedlings; 15.6 μM in GM/MS media
  Normalised root: 126.8 and 79.33 and 8.429 and 111.7 and 109.2 and 119.2 and 125.6 and 130.3 and 102.2 and 104.4 and 74.72 and 87.31 and 77.74 and 72.45 and 127.9 and 91.64 and 101.7 and 3.856 and 113.4 and 59.09
  Root Length: 4.242 cm and 2.654 cm and 0.282 cm and 3.737 cm and 3.653 cm and 3.988 cm and 4.202 cm and 4.361 cm and 3.42 cm and 3.494 cm and 2.5 cm and 2.921 cm and 2.601 cm and 2.424 cm and 4.28 cm and 3.066 cm and 3.403 cm and 0.129 cm and 3.794 cm and 1.977 cm
A. thaliana seedlings; 31.3 μM in GM/MS media
  Normalised root: 70.03 and 65.16 and 32.16 and 67.4 and 20.77 and 47.64
  Root Length: 2.343 cm and 2.18 cm and 1.076 cm and 2.255 cm and 0.695 cm and 1.594 cm
A. thaliana seedlings; 62.5 μM in GM/MS media
  Normalised root: 64.32 and 82.41 and 69.91 and 82.88 and 64.47 and 34.82 and 79.21 and 80.49 and 78.28 and 63.37 and 57.96 and 45.82 and 15.99 and 51.14 and 20.03 and 32.64
  Root Length: 2.152 cm and 2.757 cm and 2.339 cm and 2.773 cm and 2.157 cm and 1.165 cm and 2.65 cm and 2.693 cm and 2.619 cm and 2.12 cm and 1.939 cm and 1.533 cm and 0.535 cm and 1.711 cm and 0.67 cm and 1.092 cm
A. thaliana seedlings; 125 μM in GM/MS media
  Normalised root: 33.06 and 69.91 and 19.58 and 22.27 and 3.796 and 61.99 and 8.578 and 23.43 and 41.58 and 46.33 and 18.05 and 12.76 and 7.532 and 1.225 and 12.64 and 3.945 and 21.19 and 14.91 and 8.907 and 2.032
  Root Length: 1.106 cm and 2.339 cm and 0.655 cm and 0.745 cm and 0.127 cm and 2.074 cm and 0.287 cm and 0.784 cm and 1.391 cm and 1.55 cm and 0.604 cm and 0.427 cm and 0.252 cm and 0.041 cm and 0.423 cm and 0.132 cm and 0.709 cm and 0.499 cm and 0.298 cm and 0.068 cm
A. thaliana seedlings; 250 μM in GM/MS media
  Normalised root: 18.35 and 35.03 and 19.34 and 7.741 and 3.318 and 12.7 and 3.049 and 7.532 and 27.32 and 17.58 and 13.9 and 3.916 and 9.923 and 8.07 and 5.619 and 3.497 and 4.513 and 2.66 and 3.378 and 3.676
  Root Length: 0.614 cm and 1.172 cm and 0.647 cm and 0.259 cm and 0.111 cm and 0.425 cm and 0.102 cm and 0.252 cm and 0.914 cm and 0.588 cm and 0.465 cm and 0.131 cm and 0.332 cm and 0.27 cm and 0.188 cm and 0.117 cm and 0.151 cm and 0.089 cm and 0.113 cm and 0.123 cm
A. thaliana seedlings; 500 μM in GM/MS media
  Normalised root: 2.75 and 4.065 and 1.674 (2×) and 1.644 and 1.315 and 2.331 (2×) and 0.7472 and 2.272 and 2.062 and 1.076 and 1.435 and 2.63 and 2.092 and 1.584 and 5.021 and 1.375
  Root Length: 0.092 cm and 0.136 cm and 0.056 cm (2×) and 0.055 cm and 0.044 cm and 0.078 cm (2×) and 0.025 cm and 0.076 cm and 0.069 cm and 0.036 cm and 0.048 cm and 0.088 cm and 0.07 cm and 0.053 cm and 0.168 cm and 0.046 cm
A. thaliana seedlings; concentrations 125 μM and higher
  seedling development: did not develop past the point of hypocotyl formation
A. thaliana seedlings; highest concentrations tested
  development and growth of A. thaliana (leaves): lack of any chlorophyll containing leaves
A. thaliana DHDPS
  IC50: 70.5 µM
